The source of these data is patent US5688807A, “Method for treating 5HT2B receptor related conditions” (Eli Lilly and Company, priority 1995, dated 1997).

Assay [1] addresses rat 5-HT2B receptor (Rattus norvegicus, UniProt P30994). As to the kind of experiment: biochemical. The class given is binding.
Assay [2] concerns the target Rat 5-HT2A (Rattus norvegicus, UniProt P14842). As to the kind of experiment: [125I]DOI radioligand binding, rat 5-HT2A. The conditions noted are these: AVG.
The target in assay [3] is Human 5-HT2A (Homo sapiens, UniProt P28223). As to the kind of experiment: [125I]DOI radioligand binding, human 5-HT2A.
The target in assay [4] is T1, Human 5-HT2B (Homo sapiens, UniProt P41595).
T1 construct: expressed in transfected cells
The assay is described as follows: [3H]Serotonin radioligand binding, human 5-HT2B.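 Also: competition of tritiated serotonin binding to cell membranes, bound radioactivity on filters counted by liquid scintillation, IC50 from logistic fits converted to Ki with the Cheng-Prusoff equation.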

The target in assay [5] is 5-HT2B receptor (rat stomach fundus) (Rattus norvegicus, UniProt P30994).
Assay [6] addresses T2, 5-HT2A receptor (rat jugular vein) (Rattus norvegicus, UniProt P14842).
T2 construct: rat jugular vein which is mediated by 5-HT2A receptors; from tissue; host or cells: rat jugular vein
The assay is described as follows: Antagonism of serotonin response in rat jugular vein (apparent antagonist dissociation constant). The conditions noted are these: vs serotonin, ± standard error, read-out: 5-HT2A (Jugular) -log KB (converted). Here is the method:
Apparent antagonist dissociation constants (KB) were determined for each concentration of antagonist according to the following equation: […]
where [B] is the concentration of the antagonist and dose ratio is the ED50 of the agonist in the presence of the antagonist divided by the control ED50. Generally, parallel shifts in the concentration-response curves occurred in the presence of antagonists. The results were expressed as the negative logarithm of the KB (i.e., -log KB). Calculations were completed using known methods.
The values in Table II are expressed as -log KB ± standard error (number of data points). The 5-HT2B value represents the negative log of the concentration of an antagonist that will produce a two fold dextral shift in the concentration response curve to serotonin in the rat stomach fundus which is mediated by 5-HT2B receptors. Likewise, the 5-HT2A value represents the negative log of the concentration of an antagonist that will produce a two fold dextral shift in the concentration response curve to serotonin in the rat jugular vein which is mediated by 5-HT2A receptors. The blank values in Table II indicate that the compound was not tested in the indicated assay.

The test system of assay [7] is distal colon. The assay is described as follows: Functional in vitro assay: antagonism of serotonin contraction of rat distal colon longitudinal muscle. The conditions noted are these: vs serotonin. An excerpt: Functional In vitro Assay:
Sprague-Dawley rats (200-250g; Laboratory Supply, Indianapolis, Ind.) were sacrificed by cervical dislocation and 8 cm segment of distal colon was removed and washed in ice cold modified Kreb's solution of the following composition (millimolar): Nacl, 118.2; Kcl, 4.6; Cacl2. H2 O, 1.6; KH2 PO4, 1.2; MgSO4, 1.2; dextrose, 10.0; and NaHCO3, 24.8. The colon was mounted on a glass rod and the longitudinal muscle layer with attached myenteric plexi was removed and mounted in organ baths, containing above described Kreb's solution maintained at 37° C. and equilibrated with 95% O2 and 5% CO2. Tissues were placed under 2 g tension and allowed to stabilize for 1 hour. Isometric contractions were recorded as changes in grams of force using grass FT03 transducers and MI^2 - computerized dynograph system. Cumulative concentration-response curves for serotonin were obtained by a stepwise increase in concentration after washing out the preceding concentration for 10-15 minutes. Each agonist concentration remained in contact with the tissue for 5 minutes. Maximum response to each concentration was determined and digitized. EC50 values were taken as the concentration of agonist that produced half maximal contraction. After control responses were obtained, tissues were incubated with an appropriate concentration of antagonist for 15 minutes. Response to serotonin were then repeated in the presence of an antagonist. Concentration-response utilized only one concentration of antagonist per tissue. Apparent antagonist dissociation constants (KB) were determined for each concentration of antagonist according to the following equation:
KB =[B]/(dose ratio-1), where [B] is the concentration of the antagonist and dose ratio is the ED50 of the agonist in the presence of antagonist divided by the control ED50. The results were expressed as the negative logarithm of the KB (i.e., -log KB) (Br. J. Pharmacol. Methods 4:4165, (1980).
The functional in vitro method described supra. was used to test compounds of this invention. Values are expressed as pKi and pA2 (-log KB). The following table illustrates the results obtained when the compounds were tested using the Radioligand assay supra. (pKi) and the functional in vitro method described supra. (pA2)

[8] abbreviates: Ki Rat 5-HT2B, [3H]Serotonin, 5-HT2B cells, AVG.
The mark [9] stands for this setting: [125I]DOI, AVG, read-out: Ki Human 5-HT2A.
Setting [10] is: [3H]Serotonin, 5-HT2B cells, AVG, read-out: Ki Rat 5-HT2B.
Setting [11] is: [3H]Serotonin, 5-HT2B cells, AVG, read-out: Ki Human 5-HT2B.
Setting [12] is: Radioligand assay, Table III, read-out: pKi (converted).
Where [13] appears, read: rat stomach fundus, vs serotonin, ± standard error, read-out: 5-HT2B (Fundus) -log KB (converted).

Where a name gives a salt, the structure may show the parent alone. Read-outs that look alike come from different tables or passages of the source.

One may read the pKi as the Ki on a negative log10 scale, so that one unit is a factor of ten. Low readings indicate a high Ki, high ones a low Ki.
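For 5-HT2B (Fundus) -log KB in this document: isometric contraction of isolated male Wistar rat stomach fundus strips, serotonin concentration-response curves after antagonist incubation, KB from dose ratio of agonist potency versus control curve.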
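For Ki Rat 5-HT2B in this document: displacement of [3H]5-HT from membranes of suspension cells carrying cloned rat 5-HT2B receptor, incubated 15 min at 37 °C or 2 h at 0 °C, filter-bound radioactivity counted by scintillation.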

Human 5-HT2A, sequence (P28223 whole entry): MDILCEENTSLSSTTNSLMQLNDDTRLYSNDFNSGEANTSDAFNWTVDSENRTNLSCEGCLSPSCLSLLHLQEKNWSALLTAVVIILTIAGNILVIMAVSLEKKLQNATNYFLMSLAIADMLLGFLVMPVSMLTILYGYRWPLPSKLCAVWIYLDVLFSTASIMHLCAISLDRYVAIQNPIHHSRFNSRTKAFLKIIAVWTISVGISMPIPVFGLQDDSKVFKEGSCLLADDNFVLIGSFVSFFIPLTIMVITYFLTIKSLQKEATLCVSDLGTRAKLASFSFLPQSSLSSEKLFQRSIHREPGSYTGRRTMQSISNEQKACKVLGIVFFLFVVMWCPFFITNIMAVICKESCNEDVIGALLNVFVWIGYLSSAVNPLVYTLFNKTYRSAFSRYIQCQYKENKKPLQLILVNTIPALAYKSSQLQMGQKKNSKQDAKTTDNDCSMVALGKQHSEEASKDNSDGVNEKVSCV
T1 sequence (P41595 whole entry): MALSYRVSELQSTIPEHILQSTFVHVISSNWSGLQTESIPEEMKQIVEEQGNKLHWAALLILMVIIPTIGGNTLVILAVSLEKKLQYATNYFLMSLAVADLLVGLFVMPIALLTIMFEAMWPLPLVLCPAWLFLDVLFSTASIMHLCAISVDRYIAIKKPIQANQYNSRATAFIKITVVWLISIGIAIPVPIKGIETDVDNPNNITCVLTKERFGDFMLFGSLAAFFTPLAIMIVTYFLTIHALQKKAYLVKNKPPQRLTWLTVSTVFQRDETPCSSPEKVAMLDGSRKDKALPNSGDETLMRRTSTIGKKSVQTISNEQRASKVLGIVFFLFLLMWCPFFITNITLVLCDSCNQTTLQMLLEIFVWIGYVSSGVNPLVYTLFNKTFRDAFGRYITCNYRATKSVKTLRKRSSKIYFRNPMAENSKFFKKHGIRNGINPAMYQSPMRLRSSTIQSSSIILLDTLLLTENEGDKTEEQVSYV
T2 sequence (P14842 whole entry): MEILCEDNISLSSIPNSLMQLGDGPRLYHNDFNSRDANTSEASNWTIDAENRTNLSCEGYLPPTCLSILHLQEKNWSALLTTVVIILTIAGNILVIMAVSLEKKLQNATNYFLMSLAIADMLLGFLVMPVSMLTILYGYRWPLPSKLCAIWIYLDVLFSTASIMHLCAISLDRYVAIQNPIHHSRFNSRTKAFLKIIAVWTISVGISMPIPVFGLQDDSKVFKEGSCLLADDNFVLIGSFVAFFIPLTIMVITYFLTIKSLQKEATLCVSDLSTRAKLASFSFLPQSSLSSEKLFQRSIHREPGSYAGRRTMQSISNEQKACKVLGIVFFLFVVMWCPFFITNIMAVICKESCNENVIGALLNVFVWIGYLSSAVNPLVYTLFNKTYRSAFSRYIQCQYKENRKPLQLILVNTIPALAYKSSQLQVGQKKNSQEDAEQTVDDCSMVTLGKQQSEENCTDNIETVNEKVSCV
Rat 5-HT2A, sequence (P14842 whole entry): as above
rat 5-HT2B receptor, sequence (P30994 whole entry): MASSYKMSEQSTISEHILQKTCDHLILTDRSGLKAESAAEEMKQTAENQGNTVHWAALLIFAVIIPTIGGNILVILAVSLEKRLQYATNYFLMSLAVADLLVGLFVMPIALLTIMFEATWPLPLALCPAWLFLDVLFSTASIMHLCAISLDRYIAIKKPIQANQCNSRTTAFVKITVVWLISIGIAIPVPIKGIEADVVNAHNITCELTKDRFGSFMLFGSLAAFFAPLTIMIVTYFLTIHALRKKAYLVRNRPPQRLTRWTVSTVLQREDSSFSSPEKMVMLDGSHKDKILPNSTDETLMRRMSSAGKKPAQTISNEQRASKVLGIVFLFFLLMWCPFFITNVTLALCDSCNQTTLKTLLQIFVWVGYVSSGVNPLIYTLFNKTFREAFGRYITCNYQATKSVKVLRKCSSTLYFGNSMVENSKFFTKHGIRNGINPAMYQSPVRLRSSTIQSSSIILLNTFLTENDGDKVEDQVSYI
5-HT2B receptor (rat stomach fundus), sequence (P30994 whole entry): as above

For the compound `CN1CC(C(=O)NC2CCCCC2)CC2c3cccc4[nH]cc(c34)CC21` (stereo not shown), the figures for the Ki in assay [1] (setting [8]) and in assay [2] were 19 nM and 5.12 nM, respectively.

Take `CC(C)n1cc2c3c(cccc31)C1CC(C(=O)NC3CCCCC3)CN(C)C1C2` (stereo not shown): the Ki in assay [1] (setting [8]) is 15.1 nM; in assay [2] it was 2.05 nM.

For `Cc1ccc2c(CCN)c[nH]c2c1Br`, the Ki in assay [1] (setting [8]) was 11.3 nM; in assay [3] (setting [9]), 33.7 nM; in assay [2], 14.2 nM.

Turning to `Cc1ccc2c(CCN)c[nH]c2c1Cl`, the Ki is 7.94 nM in assay [1] (setting [8]), 11.2 nM in assay [4], 27.6 nM in assay [3] (setting [9]) and 20.7 nM in assay [2].

`Cc1ccc2c3c([nH]c2c1Br)CNCC3`: the Ki in assay [3] was 21.7 nM; in assay [2] it was 15.7 nM.

Take `Brc1cccc2c3c([nH]c12)CNCC3`: the Ki came to 22.7 nM in assay [3] and 25.6 nM in assay [2].

`Cc1ccc2c3c([nH]c2c1I)CNCC3`: the Ki in assay [1] (setting [10]) stood at 15.3 nM; in assay [4] (setting [11]), 10.2 nM; in assay [3], 17.8 nM.

As to `CN1CC(C(=O)N[C@H]2CC[C@H](O)CC2)CC2c3cccc4[nH]cc(c34)CC21` (stereo partly shown), the Ki turned out to be 44.6 nM in assay [1] (setting [8]), 12.4 nM in assay [4], 1.25 nM in assay [3] (setting [9]) and 5.36 nM in assay [2].

Regarding `CC(C)n1cc2c3c(cccc31)C1CC(C(=O)N[C@H]3CC[C@@H](O)CC3)CN(C)C1C2` (stereo partly shown), the Ki in assay [1] (setting [8]) turned out to be 22.3 nM; in assay [4], 4.3 nM; in assay [3] (setting [9]), 11.3 nM; in assay [2], 1.57 nM.

For `CC(C)n1cc2c3c(cccc31)C1CC(C(=O)N[C@H]3CC[C@H](O)CC3)CN(C)C1C2` (stereo partly shown), the Ki is 30.9 nM in assay [1] (setting [8]), 6.24 nM in assay [4], 21.2 nM in assay [3] (setting [9]) and 2.82 nM in assay [2].

For the compound `COc1ccc(C(C)C2NCCc3c2[nH]c2cc(C)c(C)cc32)cc1OC` (racemic) [Example 41, (±) 6,7-dimethyl-1-[(3,4-dimethoxyphenyl)-1-ethyl]-1,2,3,4-tetrahydro-9H-pyrido[3,4-b]indole (Z)-2-butenedioate], the Ki in assay [1] (setting [12]) was 6.46 nM. In addition, the Kb in assay [5] (setting [13]) was 0.155 nM; in assay [6], 11.5 nM. The “pA2 (-log KB)” value in assay [7] came to 7.2.

Take `Cc1ccc2[nH]c3c(c2c1)CCNC3Cc1cccc2ccccc12` (racemic) [Example 51, (±) 6-methyl-1-(1-naphthalenylmethyl)-1,2,3,4-tetrahydro-9H-pyrido [3,4-b]indole hydrochloride]: the Kb in assay [5] (setting [13]) is 0.178 nM; in assay [6], 8.51 nM.

`CCCN(CCC)C1CCc2cccc(-c3ccno3)c2C1` (single isomer, unassigned): the Ki was 79.3 nM in assay [1] (read-out: Ki Rat 5-HT2B, [3H]Serotonin, 5-HT2B cells, AVG); 215 nM in assay [4] (setting [11]); 6160 nM in assay [3] (read-out: Ki Human 5-HT2A, [125I]DOI, AVG).

Take `COc1ccc(C(C)C2NCCc3c2[nH]c2ccc(C)cc32)cc1OC` (single isomer, unassigned): the Ki in assay [1] (setting [10]) was found to be 30.1 nM; in assay [4] (setting [11]), 5.55 nM; in assay [3] it was 373 nM.

For the compound `Brc1ccc2[nH]c3c(c2c1)CCNC3` [6-bromo-1,2,3,4-tetrahydro-9H-pyrido[3,4b]-indole], in assay [7], the “pA2 (-log KB)” value stood at 8.2.

Regarding `Clc1ccc2[nH]c3c(c2c1)CCNC3` [6-chloro-1,2,3,4-tetrahydro-9H-pyrido[3,4b]-indole], the “pA2 (-log KB)” value in assay [7] stood at 7.2.

Take `COc1ccc(CC2NCCc3c2[nH]c2cc(C)c(C)cc32)cc1OC` (stereo not shown) [Example 16, 6,7-dimethyl-1,2,3,4-tetrahydro-1-[(3,4-dimethoxyphenyl)methyl]-9H-pyrido[3,4b]indole]: the Kb in assay [5] is 0.195 nM; in assay [6], 7.08 nM.

For `CCc1ccc2[nH]c3c(c2c1)CCNC3Cc1ccc(OC)c(OC)c1` (stereo not shown) [Example 17, 6-ethyl-1,2,3,4-tetrahydro-1-[(3,4-dimethoxyphenyl)methyl]-9H-pyrido[3,4b]indole], the values for the Kb in assay [5] (setting [13]) and in assay [6] were 0.347 nM and 21.9 nM, respectively. Further, in assay [7], the “pA2 (-log KB)” value is reported as 6.2.

Regarding `COc1ccc(CC2NCCc3c2[nH]c2ccc(C)cc32)cc1OC` (stereo not shown) [Example 20, 6-methyl-1,2,3,4-tetrahydro-1-[(3,4-dimethoxyphenyl)methyl]-9H-pyrido[3,4b]indole hydrochloride], the Kb in assay [6] was 61.7 nM. The “pA2 (-log KB)” value in assay [7] worked out at 7.8.

For `COc1ccc(CC2NCCc3c2[nH]c2ccc(C)cc32)c(OC)c1OC.Cl` (stereo not shown) [Example 22, 6-methyl-1-[(2,3,4-trimethoxyphenyl)-methyl]-1,2,3,4-tetrahydro-9H-pyrido[3,4-b]indole hydrochloride], the Ki in assay [1] (setting [12]) was 5.37 nM. Besides, the Kb in assay [5] (setting [13]) was 6.17 nM. Further, the “pA2 (-log KB)” value in assay [7] turned out to be 4.8.

For the compound `CCCOc1ccc(CC2NCCc3c2[nH]c2ccc(C)cc32)cc1OC` (stereo not shown) [Example 31, 6-methyl-1-[(3-methoxy-4-propoxyphenyl)-methyl]-1,2,3,4-tetrahydro-9H-pyrido[3,4-b]indole], the Kb was 1.12 nM in assay [5] (setting [13]) and 51.3 nM in assay [6].

Take `COc1ccc(CC2NCCc3c2[nH]c2ccc(C)cc32)c(Cl)c1OC` (stereo not shown) [Example 36, 6-methyl-1-[(2-chloro-3,4-dimethoxyphenyl)-methyl]-1,2,3,4-tetrahydro-9H-pyrido[3,4-b]indole hydrochloride]: the Kb was 0.158 nM in assay [5] (read-out: 5-HT2B (Fundus) -log KB (converted)) and 7.24 nM in assay [6].

`Cc1ccc2c3c([nH]c2c1C)CNCC3` [Example 72, 7,8-dimethyl-1,2,3,4-tetrahydro-9H-pyrido[3,4b]-indole] registered a pKi in assay [1] (Radioligand assay, Table III) of 7.8. Also, the “pA2 (-log KB)” value in assay [7] was determined as 7.5.

Regarding `Cc1ccc2c3c([nH]c2c1Cl)CNCC3` [Example 76, 7-methyl-8-chloro-1,2,3,4-tetrahydro-9H-pyrido[3,4b]-indole], the “pA2 (-log KB)” value in assay [7] came to 8.3.

As to `CC(C)n1cc2c3c(cccc31)C1CC(C(=O)NC3CCCCC3O)CN(C)C1C2` (stereo not shown) [drawing 84], the Ki in assay [1] (setting [8]) came to 10.2 nM; in assay [3] (setting [9]), 74.5 nM; in assay [2], 8.91 nM.

For `CC(C)n1cc2c3c(cccc31)C1CC(C(=O)NC3CCCCC3O)CN(C)C1C2` (stereo not shown) [drawing 85], the Ki was 11.4 nM in assay [1] (setting [8]), 108 nM in assay [3] (setting [9]) and 12.4 nM in assay [2].

`CC(C)n1cc2c3c(cccc31)C1CC(C(=O)NC3CCCCC3O)CN(C)C1C2` (stereo not shown) [drawing 86]: the Ki was 8.61 nM in assay [1] (setting [8]), 15.8 nM in assay [3] (setting [9]) and 2.39 nM in assay [2].

Regarding `CC(C)n1cc2c3c(cccc31)C1CC(C(=O)NC3CCCCC3O)CN(C)C1C2` (stereo not shown) [drawing 87], the figures for the Ki in assay [1] (setting [8]), in assay [3] (setting [9]) and in assay [2] were 9.35 nM, 18.6 nM and 2.44 nM, respectively.

In the case of `CCc1ccc2[nH]c3c(c2c1)CCNC3Cc1ccc(OC)c(OC)c1` (stereo not shown) [drawing 143], the Ki amounted to 8.16 nM in assay [1] (setting [10]), 1.5 nM in assay [4] (setting [11]) and 23.4 nM in assay [3].

Take `Cc1cc(Br)c2[nH]c3c(c2c1)CCNC3` [drawing 168]: the Ki was 41.7 nM in assay [3] and 47 nM in assay [2].

For the compound `Cc1ccc2c3c([nH]c2c1Cl)CNCC3` [drawing 177], the Ki is 2.69 nM in assay [1] (setting [10]), 2.68 nM in assay [4] (setting [11]), 20.6 nM in assay [3] and 15.5 nM in assay [2].
